From US9622996B2, “Use of adrenergic beta-E-receptor blockers in cancer treatment” (priority 2012, dated 2017)

What was measured:
MCF-7 cells = experiment: Western blot of p53 and SIRT1 in MCF-7 cells treated with SR59230A; type: cell-based; settings: 24 h, with increasing SR59230A concentration
Protocol: MCF-7 cells were treated with SR59230A at different concentrations. After 24 h, the cells were lysed to extract total protein. The protein concentration was determined by BCA method. 10 μg of the protein was used to perform 10% SDS PAGE, and then transferred to a PVDF membrane. The membrane was blocked for 1 h with TBST (10 mmol/L Tris HCl, pH 7.5, 150 mmol/L NaCl, 0.1% Tween 20) containing 4% fat-free milk, and incubated overnight with p53 antibody (1:1000) and SIRT1 antibody (1:1000) at 4° C. The membrane was further incubated with secondary antibodies for 1 h after washing, followed by ECL color development. The same procedure was repeated 3 times. The gray values of protein bands were obtained through Fluorchem 8900 software and the ratio of target band to reference band (GAPDH) was calculated. Results are shown in FIGS. 1 and 2, wherein the expression level of p53 was increased as the increase of SR59230A concentration, while SIRT1 was decreased.

MCF-7 implant tumor = MCF-7 implant tumor model in nude mice; type: in vivo
Protocol: SR59230A reduced implant tumor volume in MCF-7 nude mice. 10^7 of MCF-7 cells were subcutaneously injected into 5-week old female nude mice to establish implant tumor model. 10 days followed the injection, tumor volume increased to about 250 mm^3. The mice were randomly divided into two groups with each group having 8 mice. The treatment group was peritoneally injected with SR56230A at 100 nmol for each mouse. The injection was carried every two days and lasted for 5 weeks. The control group is administrated with solvents with same volume. The length, width and height of tumors were determined using a vernier caliper prior to each administration, so as to calculate tumor volume. The tumor growth curve was shown in FIG. 8, in which SR59230A treated mice had slower implant tumor growth rat when compared to control group (FIG. 9). […] In order to determine expression levels of phospho-4E-BP1(Thr37/46) and p62, the tumor tissue was obtained for paraffin embedding and section and then immunohistochemistry, and proteins were extracted from the tumor tissue for Western blot.

[1] = test system: MCF-7 breast carcinoma cells; experiment: Annexin V/PI flow cytometry, apoptosis and cell cycle of MCF-7 cells; type: cell-based; settings: P<0.01
Protocol: (§1) A target sequence was selected from the DNA sequence of β3AR gene using computer program. The DNA fragment of the target sequence was synthesized and cloned on a vector. Human U6 promoter was cloned to pcDNA3/neo vector to clone DNA fragment of shRNA. The plasmid vector was tranfected into cells using lipofection2000. 48 h following the tranfection, siRNA was expressed in the cells. The cells were subjected to Annexin V/PI double staining. Apoptosis rate was determined by flow cytometry.

H1975 lung cancer cells = experiment: Apoptosis of H1975 lung cancer cells; type: cell-based
Protocol: as §1

H1299 lung cancer cells = experiment: Apoptosis of H1299 lung cancer cells; type: cell-based
Protocol: as §1

HL-60 leukaemia cells = experiment: miR-16-1/miR-15a expression, apoptosis and mitochondrial readouts in HL-60 cells; type: cell-based; settings: HL-60, 10^−7M
Protocol: (§2) SR59230A promoted cell apoptosis by increase expression of miR-16-1 and miR-15a in HL-60 and K562 leukaemia cells. SR59230A at 10^−7M was used to treat HL-60 and K562 leukaemia cells. 8 h following the treatment, total microRNA was extract and then reversely transcribed for quantitative PCR to determine the expression of miR-16-1 and miR-15a. Flow cytometry was used to detect earlier cell apoptosis label Annexin V/PI and apoptosis rate. MitoTracker Red CMXRos was used to detect number of mitochondrion. JC1 was used to determine mitochondrial membrane potential. Autophagosome was determined by monodansylcadaverine (MDC) staining, and observed and countered under transmission electron microscope. Intracellular ATP level was determined by ATP Kit. […] SR59230A could decrease mitochondrial membrane potential of HL-60 and K562 cells, induce mitophagy, decrease mitochondrial content and reduce intracellular ATP level.

K562 leukaemia cells = experiment: miR-16-1/miR-15a expression, apoptosis and mitochondrial readouts in K562 cells; type: cell-based; settings: K562, 10^−7M
Protocol: as §2

MCF7 cells = experiment: Mitochondrial autophagy in MCF7 cells (MitoTracker, LC3II Western blot); type: cell-based; settings: MCF7, 10^−7M, 18 h
Protocol: β3 receptor regulated mitochondrial autophagy. MCF7 cells were treated by SR59230A (10^−7M) for 18 h. MitoTracker was used to label mitochondrion at 37° C. for 20 min. The cells were washed with PBS for 3 times and fluorescent detection was then carried out by fluorescent confocal microscopy and flow cytometry. The autophagy labeling protein LC3II was measured by Western blot.

[2] = test system: multidrug resistance-associated protein 1 (MRP1); experiment: 5-CFDA (MRP1 substrate) efflux staining in PC-3 cells; type: cell-based, Human; settings: PC-3, 10^−7M, 18 h, confocal microscopy
Protocol: Beta-3 receptor activated multidrug resistance-associated protein 1 (MRP1). Human prostatic cancer cells PC-3 was used to be treated with SR59230A and BRL37344, each at 10^−7M, for 18 h and then stained with substrate of MRP1, 5-CFDA and observed under confocal microscopy.

[3] = test system: prostatic cancer cells PC-3; experiment: Autophagy of prostatic cancer cells PC-3 (FIG. 17); type: cell-based, Human; settings: FIG. 17 legend only
[4] = test system: rat myocardial infarction models; experiment: Rat myocardial infarction (heart failure) model, ligation of left coronary artery; type: in vivo; settings: 1 mg/kg/day intraperitoneal, 4 weeks
Protocol: In rat myocardial infarction models, activation of the β-3 receptor could increase level of SIRT1 in cardiomyocyte, inhibit expression of p53, improve the cardiac function and achieve anti-apoptosis effect. The myocardial infarction model was created by ligation of anterior descending branch of rat left coronary artery. BRL37344 was intraperitoneally injected at 1 mg/kg/day, and heart B-ultrasonography was performed after 4 weeks. Heart tissue was determined for apoptosis (tunel method) and expression levels of SIRT1 and p53 (western blot). The ratio of left ventricular weight to body weight (LVW/BW) is determined. It can be seen from the results shown in FIGS. 3 to 5, that BRL37344 decreases p53 expression, cardiac cell apoptosis, and value of LVW/BW of heart failure rat, increases SIRT1 expression, alleviate cardiac hypertrophy and improve cardiac function.

[5] = test system: adipose-derived stem cells of rats; experiment: β-Galactosidase staining of adipose-derived stem cells; type: cell-based, rat; settings: 10^−7M, 24 h, compared with SR59230A
Protocol: Blockage of the β-3 receptor could increase level of β-galactosidase in adipose-derived stem cells and promote stem cell aging. BRL37344 and SR59230A were used to treat adipose-derived stem cells of rats each at 10^−7M. After 24 h, cells were fixed using paraformaldehyde, and stained and photographed according to the specification of β-Galactosidase Staining Kit. BRL37344 decreased the level of β-galactosidase in adipose-derived stem cells when compared with SR59230A, indicating agonisting of adrenergic β3 receptors of adipose-derived stem cells achieves anti-aging effect.

rat cardiomyocyte = experiment: Western blot of mTOR and Rictor proteins (mTOR/Rictor complex); type: cell-based; settings: 10^−7M, 24 h, compared to the control shRNA
Protocol: Activation of the β3 receptor could increase mTOR/Rictor complex in MCF-7 cells. shRNA of β3 adrenergic receptor, control shRNA, BRL37344 and SR59230A were used to treat rat cardiomyocyte each at 10^−7M. After 24 h, total protein was extracted and subjected to western blot to determine the expression amount of mTOR and Rictor proteins.

[6] = test system: cardiac fibroblast of rats; experiment: mTOR/α-Tubulin and Rictor/α-Tubulin double staining in cardiac fibroblast; type: cell-based, rat; settings: 10^−7M, confocal microscope
Text: Beta-3 receptor promoted binding of mTORC2 to α-Tubulin in spindle apparatus. BRL37344 was used to treat cardiac fibroblast of rats at 10^−7M. The cells were undergone mTOR/α-Tubulin immunohistochemical double staining and Rictor/α-Tubulin immunohistochemical double staining, and observed under confocal microscope.

[7] = 100 nmol per mouse peritoneally every two days for 5 weeks
[8] = tumor tissue, immunohistochemistry and Western blot
[9] = 8 h, quantitative PCR, compared to control
[10] = Annexin V/PI flow cytometry, P<0.01

CCc1ccccc1OC[C@@H](O)CN[C@H]1CCCc2ccccc21 [SR59230A]
expression level of SIRT1 (MCF-7 cells): decreased
expression level of p53 (MCF-7 cells): increased
relative tumor growth rate T/C (%) (MCF-7 implant tumor; [7]): 39.80%
tumor inhibition rate (MCF-7 implant tumor; [7]): 57.97%
tumor volume based on the control group (MCF-7 implant tumor; [7]): 42.03%
implant tumor growth rate compared to control group (MCF-7 implant tumor; 100 nmol per mouse peritoneally every two days for 5 weeks, tumor growth curve): slower
glycolysis in tumors (MCF-7 implant tumor; PET/CT detection): inhibited
expression of p62 (MCF-7 implant tumor; [8]): reduced
expression of phospho-4E-BP1 (MCF-7 implant tumor; [8]): reduced
mTOR activity in tumors (MCF-7 implant tumor; [8]): inhibited
mitophagy in tumor cells (MCF-7 implant tumor; tumor tissue, transmission electron microscope): enhanced
apoptosis rate versus control group [1]: significant increase
apoptosis of H1975 cells (H1975 lung cancer cells): promoted apoptosis
apoptosis of H1299 cells (H1299 lung cancer cells): promoted apoptosis
mitophagy (HL-60 leukaemia cells): induce
expression of miR-15a (HL-60 leukaemia cells; [9]): significantly increased
expression of miR-16-1 (HL-60 leukaemia cells; [9]): significantly increased
intracellular ATP level (HL-60 leukaemia cells; ATP Kit): reduce
apoptosis rate (HL-60 leukaemia cells; [10]): increased
mitochondrial membrane potential (HL-60 leukaemia cells; JC1): decrease
mitochondrial content (HL-60 leukaemia cells; MitoTracker Red CMXRos): decrease
mitophagy (K562 leukaemia cells): induce
expression of miR-15a (K562 leukaemia cells; [9]): significantly increased
expression of miR-16-1 (K562 leukaemia cells; [9]): significantly increased
intracellular ATP level (K562 leukaemia cells; ATP Kit): reduce
apoptosis rate (K562 leukaemia cells; [10]): increased
mitochondrial membrane potential (K562 leukaemia cells; JC1): decrease
mitochondrial content (K562 leukaemia cells; MitoTracker Red CMXRos): decrease
autophagosome (MCF7 cells): increased
mitochondrion amount (MCF7 cells; MitoTracker): significantly decreased
LC3II expression (MCF7 cells; Western blot): increased
5-CFDA efflux (MRP1 substrate) [2]: inhibited
autophagy of prostatic cancer cells PC-3 [3]: increased

C[C@H](Cc1ccc(OCC(=O)O)cc1)NC[C@H](O)c1cccc(Cl)c1 [BRL37344]
cardiac hypertrophy [4]: alleviate
ratio of left ventricular weight to body weight (LVW/BW) [4]: decreases
cardiac function ([4]; heart B-ultrasonography): improve
cardiac cell apoptosis ([4]; tunel method): decreases
SIRT1 expression in heart tissue ([4]; western blot): increases
p53 expression in heart tissue ([4]; western blot): decreases
level of β-galactosidase [5]: decreased
mTOR/Rictor complex (rat cardiomyocyte): increased
binding of Rictor to α-Tubulin [6]: promoted
binding of mTOR to α-Tubulin in spindle apparatus [6]: promoted
